We go through five compounds from US20240343755A1, “STABLE ISOQUINOLINE-CORTICOSTEROID CONJUGATES AND USES THEREOF” (priority 2021, published 2024).

The IC50 is the concentration that gives 50% inhibition.

Counter-ions that a name gives are not always drawn. Like-named read-outs stand apart in the source and are kept apart here.

The test system of data set [1] is Tumor Necrosis Factor α. As to the kind of experiment: In vitro steroid activity, TNFα. The note with it: read-out: IC50 (nM) TNFα. It counts as cell-based. As for the experimental part: (§1) Activities of certain compounds and components of compounds described herein were assayed. […] Rho-associated protein kinase 2=ROCK2; […] Porcine Trabecular Meshwork cells=PTM; Human Trabecular Meshwork cells=HTM; Splenic Interleukin-23=SPNL IL23; and Tumor Necrosis Factor α=TNFα.

The subject of data set [2] is Splenic Interleukin-23. Description: In vitro steroid activity, splenic IL-23. It counts as cell-based. The settings on record: read-out: IC50 (nM) SPLN IL23. As for the experimental part:
as §1

Data set [3] deals with Porcine Trabecular Meshwork cells. As to the kind of experiment: Activity in Porcine Trabecular Meshwork cells (PTM). The settings on record: Sus scrofa. It counts as cell-based. The method, then: (§2) Activities of certain compounds and components of compounds described herein were assayed. […] Rho-associated protein kinase 2=ROCK2; Rho-associated protein kinase 1=ROCK1; Porcine Trabecular Meshwork cells=PTM; Human Trabecular Meshwork cells=HTM; Splenic Interleukin-23=SPNL IL23; and Tumor Necrosis Factor α=TNFα.

The test system of data set [4] is Human Trabecular Meshwork cells. As to the kind of experiment: Activity in Human Trabecular Meshwork cells (HTM). It counts as cell-based. The method, then: as §2
In data set [5] the test system is corneal epithelium debridement in C57/B1/6 mice. As to the kind of experiment: In vivo PK/PD ocular surface corneal wound healing model. The settings on record: 0.1% E5 in SBEβCD. The method, then: E5 was formulated in 3.5% sulfobutylether-β-cyclodextrin (SBEβCD), 10 mM PBS, pH 6 and filtered with a 0.2 μm PVDF filter.
Anesthetized animals (8-10 weeks old male C57/B1/6 mice) were placed under a dissecting microscope and eyes proposed. Corneas of OD eyes were demarcated by centrally, and softly, marking the perimeters of the debridement area with a 2 mm trephine. A 10 μL drop of PBS was placed on the eye and an Algerbrush with a 0.5 mm burr attachment was utilized to carefully remove the epithelium within the demarcated area of the cornea. Topical fluorescein (Sigma) was applied, and excess fluorescein flushed prior to capture of a baseline image of the wound (time=0). Topical treatments were administered at t=0 and t=6 hours post-injury by applying 5 µL to the surface of the debrided eye. Fluorescein-stained corneas were imaged again 24 h after injury. Percent re-epithelialization was assessed by analysis of imaged corneas with Image J (NIH, Bethesda, MD).
0.1% dexamethasone and 0.5% loteprednol were used as positive clinically relevant controls.

For data set [6], the target named is Rho-associated protein kinase 1 (ROCK1) (Homo sapiens, UniProt Q13464). As to the kind of experiment: In vitro ROCKi activity, ROCK1. Type of data set: biochemical. As for the experimental part:
as §2

Data set [7] has as its target Rho-associated protein kinase 2 (ROCK2) (Homo sapiens, UniProt O75116). As to the kind of experiment: In vitro ROCKi activity, ROCK2. It counts as biochemical. The method, then:
as §2

The subject of data set [8] is Allergic Eye Disease (AED) in wildtype C57Bl/6 mice. Description: Chronic/severe allergic eye disease (AED) model, Meibomian gland dysfunction. It counts as in vivo. The note with it: 0.1% E5 in SBEβCD, topical BID 5 uL. As for the experimental part:
E5 was formulated in 5% sulfobutylether-β-cyclodextrin (SBEβCD), 10 mM PBS (0.1% NaCl) solution, pH 6 and filtered with a 0.2 μm PVDF filter. AED was induced in wildtype C57Bl/6 mice. Animals were immunized with one intraperitoneal (i.p) injection of 100 μg of OVA (InvivoGen) in 300 ng of pertussis toxin (List Biologicals) and 4 mg of aluminum hydroxide (Alum, Thermo Fisher Scientific Pierce) on Day 0. Two weeks later, mice were treated topically QD with 5 μL OVA (50 μg/μL) in sterile saline for 5 days. Mice were treated topically BID with 5 uL of vehicle (10% SBEβCD), Lotemax® (Bausch & Lomb; loteprednol etabonate ophthalmic gel 0.5%) or 0.1% E5 in SBEβCD (50:1). The first treatment was administered on Day 14 (2 weeks after initial immunization), 10 minutes prior to OVA instillation followed by a second dose >7 hrs thereafter.
Assessment was carried out following euthanasia. All four lids were gently inverted under a dissection microscope to expose the posterior lid margin. The number of plugs on the upper and lower eyelids are analyzed and scored for severity as follows: 0 indicates no plug, 1+ indicates appearance of plug. 2+ is assigned to a plug that obstructs the entire MG (Meibomian gland) orifice, 3+ is a plug with a dome that rises above the plane of the eyelid margin, and a 4 is given to a plug that covers a larger surface than the MG orifice (usually with irregular circumference edges).
Clinical parameters including eyelid edema, chemosis, conjunctival redness, and tearing were each scored on a scale of 0-3+. A score of 0 indicated no evidence of the respective parameter, 1+ is assigned if the response is mild, but distinctly greater than the naive controls; 2+ for a moderate change in the respective parameters that could be noted by slit-lamp microscopy, but not with naked eye; and 3+ if the response is severe enough that could be perceived with naked eye.
Results are shown in FIG. 9, FIG. 10, and FIG. 11.

Data set [9] deals with intraocular pressure in normotensive Dutch Belted rabbits. Description: Intraocular pressure study in normotensive Dutch Belted rabbits. The note with it: single dose E5 0.1% or 0.25%. It counts as in vivo. The method, then:
E5 was formulated in 3.5% or 6.5% sulfobutylether-β-cyclodextrin (SBEβCD), 10 mM PBS, pH 6 and filtered with a 0.2 μm PVDF filter. A single dose was administered and the intraocular pressure was measured, e.g., with a pneumatonometer, for 32 hours post-dose.

Chain of Rho-associated protein kinase 1 (ROCK1) (Q13464 whole entry, species assumed): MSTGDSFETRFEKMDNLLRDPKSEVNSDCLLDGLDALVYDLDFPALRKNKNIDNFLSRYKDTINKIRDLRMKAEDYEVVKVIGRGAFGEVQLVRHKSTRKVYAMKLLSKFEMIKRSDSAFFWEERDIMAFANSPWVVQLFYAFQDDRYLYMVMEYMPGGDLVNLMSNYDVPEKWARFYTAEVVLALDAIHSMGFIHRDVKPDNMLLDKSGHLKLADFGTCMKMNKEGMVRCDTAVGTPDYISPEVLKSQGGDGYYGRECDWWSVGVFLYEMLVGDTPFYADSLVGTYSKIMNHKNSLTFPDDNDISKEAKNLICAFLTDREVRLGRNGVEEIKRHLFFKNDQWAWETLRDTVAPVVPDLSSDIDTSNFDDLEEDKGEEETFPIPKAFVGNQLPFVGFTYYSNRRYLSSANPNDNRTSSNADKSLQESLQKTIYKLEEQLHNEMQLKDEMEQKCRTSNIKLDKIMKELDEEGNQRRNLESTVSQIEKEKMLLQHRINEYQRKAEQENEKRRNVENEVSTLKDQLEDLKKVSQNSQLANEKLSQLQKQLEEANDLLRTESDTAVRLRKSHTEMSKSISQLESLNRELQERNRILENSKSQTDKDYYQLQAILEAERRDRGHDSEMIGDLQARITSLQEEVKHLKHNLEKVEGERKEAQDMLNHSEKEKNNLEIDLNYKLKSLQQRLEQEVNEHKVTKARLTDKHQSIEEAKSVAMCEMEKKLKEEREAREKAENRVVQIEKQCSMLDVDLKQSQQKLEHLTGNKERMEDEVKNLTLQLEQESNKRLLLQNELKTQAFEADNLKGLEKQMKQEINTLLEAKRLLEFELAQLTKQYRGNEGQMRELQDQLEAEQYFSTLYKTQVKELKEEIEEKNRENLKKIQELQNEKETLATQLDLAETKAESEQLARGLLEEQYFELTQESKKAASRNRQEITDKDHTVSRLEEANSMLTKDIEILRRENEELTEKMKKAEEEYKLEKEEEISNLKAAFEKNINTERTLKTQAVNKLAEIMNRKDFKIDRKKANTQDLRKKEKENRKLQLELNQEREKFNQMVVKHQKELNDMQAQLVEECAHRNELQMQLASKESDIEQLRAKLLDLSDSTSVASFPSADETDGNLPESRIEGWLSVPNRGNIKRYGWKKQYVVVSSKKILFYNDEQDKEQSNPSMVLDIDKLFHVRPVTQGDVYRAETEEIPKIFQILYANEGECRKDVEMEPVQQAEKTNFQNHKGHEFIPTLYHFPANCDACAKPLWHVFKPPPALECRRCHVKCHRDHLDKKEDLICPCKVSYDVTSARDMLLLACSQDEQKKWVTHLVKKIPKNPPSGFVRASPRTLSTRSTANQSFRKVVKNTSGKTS
Chain of Rho-associated protein kinase 2 (ROCK2) (O75116 whole entry, species assumed): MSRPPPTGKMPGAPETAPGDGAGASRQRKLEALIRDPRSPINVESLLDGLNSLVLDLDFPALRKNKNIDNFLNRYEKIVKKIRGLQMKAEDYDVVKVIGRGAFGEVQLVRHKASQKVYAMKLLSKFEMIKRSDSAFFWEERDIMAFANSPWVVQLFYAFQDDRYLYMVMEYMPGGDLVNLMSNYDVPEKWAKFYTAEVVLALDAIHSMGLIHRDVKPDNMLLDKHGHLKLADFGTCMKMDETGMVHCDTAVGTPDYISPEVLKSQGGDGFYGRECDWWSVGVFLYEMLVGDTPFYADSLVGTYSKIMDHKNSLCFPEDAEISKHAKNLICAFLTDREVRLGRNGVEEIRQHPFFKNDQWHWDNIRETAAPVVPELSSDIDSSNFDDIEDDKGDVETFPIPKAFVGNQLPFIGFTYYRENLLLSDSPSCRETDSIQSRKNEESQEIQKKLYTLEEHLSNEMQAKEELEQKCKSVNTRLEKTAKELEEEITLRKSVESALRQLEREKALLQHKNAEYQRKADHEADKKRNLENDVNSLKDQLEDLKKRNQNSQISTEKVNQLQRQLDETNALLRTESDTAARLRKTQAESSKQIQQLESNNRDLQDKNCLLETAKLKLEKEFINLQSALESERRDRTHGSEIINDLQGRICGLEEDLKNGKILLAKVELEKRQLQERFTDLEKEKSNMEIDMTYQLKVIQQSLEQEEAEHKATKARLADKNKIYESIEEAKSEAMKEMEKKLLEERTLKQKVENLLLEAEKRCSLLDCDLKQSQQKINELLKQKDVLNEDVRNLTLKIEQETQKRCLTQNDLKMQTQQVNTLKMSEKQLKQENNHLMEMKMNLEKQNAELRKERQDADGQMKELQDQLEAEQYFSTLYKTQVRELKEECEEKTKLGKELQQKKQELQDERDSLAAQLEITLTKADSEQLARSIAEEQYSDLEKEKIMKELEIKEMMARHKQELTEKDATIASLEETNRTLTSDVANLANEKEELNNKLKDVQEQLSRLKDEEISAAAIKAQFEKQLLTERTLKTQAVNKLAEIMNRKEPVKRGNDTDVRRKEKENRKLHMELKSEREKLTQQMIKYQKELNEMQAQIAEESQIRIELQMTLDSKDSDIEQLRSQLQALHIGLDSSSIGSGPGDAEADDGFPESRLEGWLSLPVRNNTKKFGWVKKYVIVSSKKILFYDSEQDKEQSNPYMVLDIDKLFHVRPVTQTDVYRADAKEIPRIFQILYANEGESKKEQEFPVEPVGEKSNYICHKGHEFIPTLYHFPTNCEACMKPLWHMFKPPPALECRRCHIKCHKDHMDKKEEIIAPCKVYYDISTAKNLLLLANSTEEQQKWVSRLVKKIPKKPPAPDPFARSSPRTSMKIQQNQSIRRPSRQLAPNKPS

On to `C[C@@H]1C[C@H]2[C@@H]3CCC4=CC(=O)C=C[C@]4(C)[C@@]3(F)[C@@H](O)C[C@]2(C)[C@@]1(O)C(=O)CO` [B, Dexamethasone, reference compound], for which the IC50 is 47 nM in [1], 4.6 nM in data set [2] (Splenic Interleukin-23), at least 3000 nM in data set [3] and at least 3000 nM in data set [4].
In the case of `CC1(C)O[C@@H]2C[C@H]3[C@@H]4CCC5=CC(=O)C=C[C@]5(C)[C@@]4(F)[C@@H](O)C[C@]3(C)[C@]2(C(=O)COC(=O)CCCC(=O)OCc2ccc([C@@H](CN)C(=O)Nc3ccc4cnccc4c3)cc2)O1` [Example E5, 4-((S)-3-amino-1-(isoquinolin-6-ylamino)-1-oxopropan-2-yl)benzyl (2-((6aS,6bR,7S,8aS,8bS,11aR,12aS,12bS)-6b-fluoro-7-hydroxy-6a,8a,10,10-tetramethyl-4-oxo-1,2,4,6a,6b,7,8,8a,11a,12,12a,12b-dodecahydro-8bH-naphtho[2′,1′:4,5]indeno[1,2-d][1,3]dioxol-8b-yl)-2-oxoethyl) glutarate dihydrochloride], the “re-epithelialization (recovery of epithelium)” value in [5] (24 h after epithelium debridement, FIG. 12) was “did not affect the recovery of epithelium”. In [5] (topical 5 µL at t=0 and t=6 hours post-injury, FIG. 13), the “myeloperoxidase (MPO) levels (eye surface inflammation)” value is “significantly reduced the cornea inflammation in comparison to PBS (phosphate-buffered saline) vehicle and loteprednol groups”. Besides, the IC50 in data set [1] worked out at 10 nM; in [2] it was 1 nM; in data set [6] it was 9 nM; in data set [7] (read-out: IC50 (nM) ROCK2), 9 nM; in data set [3] it was 55 nM. Also, the “Meibomian gland orifice plugging (number and severity of MG plugs)” value in [8] (FIG. 10) was “effective in lowering both the number and severity of the MG plugs compared to both vehicle and loteprednol”. Moreover, in data set [8] (FIG. 11), the “neutrophil levels in Meibomian gland and conjunctiva” value was “reduced the number of neutrophils in the Meibomian gland and conjunctiva”. Also, the “clinical scoring (eyelid edema, chemosis, conjunctival redness, tearing)” value in data set [8] (better than loteprednol gel, significance on day 4, FIG. 9) is listed as “statistically significantly improved compared to vehicle”. The hyperemia entry in [9] (Dutch belted rabbits) is reported as “no hyperemia observed”. In addition, the “intraocular pressure (IOP)” value in data set [9] (measured for 32 hours post-dose, FIG. 14, FIG. 15) is given as “lowered IOP in a dose-dependent manner”.
`NC[C@@H](C(=O)Nc1ccc2cnccc2c1)c1ccc(CO)cc1` [A, reference compound]: the IC50 was 1.7 nM in data set [6], 0.99 nM in data set [7], 13 nM in data set [3] and 5 nM in data set [4].
For `CC1(C)O[C@@H]2C[C@H]3[C@@H]4CCC5=CC(=O)C=C[C@]5(C)[C@@]4(F)[C@@H](O)C[C@]3(C)[C@]2(C(=O)CO)O1` [C, Triamcinolone, reference compound], the figures for the IC50 in [1] and in data set [2] (Splenic Interleukin-23) were 0.51 nM and 0.93 nM, respectively.
With `C[C@@H]1C[C@H]2[C@@H]3CCC4=CC(=O)C=C[C@]4(C)[C@@]3(F)[C@@H](O)C[C@]2(C)[C@@]1(O)C(=O)COC(=O)CCCC(=O)OCc1ccc([C@@H](CN)C(=O)Nc2ccc3cnccc3c2)cc1` [Example E15], the IC50 came out at 147 nM in data set [1]; 12 nM in [2] (Splenic Interleukin-23); 7 nM in data set [6]; 4 nM in data set [7] (read-out: IC50 (nM) ROCK2); 40 nM in [3].
